The record followed here is patent publication US12371454B2, “Cyclic peptide compound having Kras inhibitory action” (priority 2019, dated 2025).

SMILES strings stand for the structures. Starred links: 1 amine or outer side, 2 acyl side, 3 side chain; linkers in the order of their positions; H or OH if unused. Positions of bridges follow the written chain, without caps; N, C: chain ends. Non-standard residues stand in square brackets, D forms with d. Residues, ends and D or L forms follow the SMILES beside them. *: point of attachment. hPhe(3,5-F2-4-CF3) = N[C@@H](CCc1cc(F)c(C(F)(F)F)c(F)c1)C(=O)O; hPhe(3-Cl-4-CF3) = N[C@@H](CCc1ccc(C(F)(F)F)c(Cl)c1)C(=O)O; NMePhe(4-CF3) = CN[C@@H](Cc1ccc(C(F)(F)F)cc1)C(=O)O; NMePhe(4-Cl) = CN[C@@H](Cc1ccc(Cl)cc1)C(=O)O; Phe(3,5-F2) = N[C@@H](Cc1cc(F)cc(F)c1)C(=O)O; X51 = O=C([C@H](Cc1cc(F)cc(I)c1)N[*:1])[*:2]; X41 = O=C([C@H](Cc1cccc(I)c1F)N[*:1])[*:2]; Phe(3-CN) = N#Cc1cccc(C[C@H](N)C(=O)O)c1; NMeGly(cPent) = CN[C@H](C(=O)O)C1CCCC1; Pro(4,4-F2) = O=C(O)[C@@H]1CC(F)(F)CN1; NMeY = CN[C@@H](Cc1ccc(O)cc1)C(=O)O; NMeCha = CN[C@@H](CC1CCCCC1)C(=O)O; NMeChg = CN[C@H](C(=O)O)C1CCCCC1; NMeF = CN[C@@H](Cc1ccccc1)C(=O)O; NMeI = CC[C@H](C)[C@H](NC)C(=O)O; NMeD = CN[C@@H](CC(=O)O)C(=O)O; dNMeD = CN[C@H](CC(=O)O)C(=O)O; NMeL = CN[C@@H](CC(C)C)C(=O)O; NMeV = CN[C@H](C(=O)O)C(C)C; d(β3hA) = C[C@@H](N)CC(=O)O; NMeAbu = CC[C@H](NC)C(=O)O; NMeA = CN[C@@H](C)C(=O)O; NMeAib = CNC(C)(C)C(=O)O; Nle = CCCC[C@H](N)C(=O)O; Piperidide = C1CCN(*)CC1; Pyrrolidide = C1CCN(*)C1; dNMeA = CN[C@H](C)C(=O)O; Ac5c = NC1(C(=O)O)CCCC1; Aze = O=C(O)[C@@H]1CCN1; Ac4c = NC1(C(=O)O)CCC1; NBuGly = CCCCNCC(=O)O; Sar = CNCC(=O)O

T1 sequence (P01116 1-188 isoform P01116-2 G12D): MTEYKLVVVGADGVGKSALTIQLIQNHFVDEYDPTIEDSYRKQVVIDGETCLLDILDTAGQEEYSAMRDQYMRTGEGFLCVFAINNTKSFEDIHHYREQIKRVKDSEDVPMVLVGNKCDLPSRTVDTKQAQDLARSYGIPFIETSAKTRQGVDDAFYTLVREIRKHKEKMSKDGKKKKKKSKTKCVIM

This assay addresses T1, Kras and SOS1 (biotin-tagged human Kras loaded with GDP, His-tagged human SOS1) (Homo sapiens, UniProt P01116, G12D).
T1 construct: made in house; host or cells: E. coli (stated for Kras only)
Kind of assay: Protein-protein interaction inhibition between Kras and SOS1 (KrasGl2D-SOS PPI) using AlphaScreen. The format is binding. Particulars: AlphaScreen; biotin-tagged human Kras loaded with GDP, His-tagged human SOS1; read-out: KRAS G12D-SOS PPI IC50. The essentials: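 Read-out is acceptor-bead light at 520-620 nm, arising when 680 nm-irradiated nickel donor beads pass singlet oxygen to streptavidin acceptors. The bead pair links His-tagged SOS1 with biotin-tagged, GDP-bound Kras from E. coli.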
Turning to `CC[C@H](C)[C@@H]1NC(=O)[C@H](CC(C)C)N(C)C(=O)C[C@@H](C(=O)N2CCCC2)N(C)C(=O)[C@H](C2CCCCC2)N(C)C(=O)C2(CCC2)NC(=O)[C@@H]2CC(F)(F)CN2C(=O)[C@H](CCc2cc(F)c(C(F)(F)F)c(F)c2)NC(=O)CN(C)C(=O)[C@H](CC2CCCCC2)N(C)C(=O)CN(C)C(=O)CN(C)C1=O` [Compound 1192] ([NMeL]I[Sar][Sar][NMeCha][Sar][hPhe(3,5-F2-4-CF3)][Pro(4,4-F2)][Ac4c][NMeChg][NMeD]-Pyrrolidide; lactam N-11), the IC50 stood at 0.39 nM.

As for `CC[C@H](C)[C@@H]1NC(=O)[C@H](CC(C)C)N(C)C(=O)C[C@H](C(=O)N2CCCC2)N(C)C(=O)[C@H]([C@@H](C)CC)N(C)C(=O)C2(CCCC2)NC(=O)[C@@H]2CCCN2C(=O)[C@H](CCc2ccc(C(F)(F)F)c(Cl)c2)NC(=O)CN(C)C(=O)[C@H](Cc2ccc(C(F)(F)F)cc2)N(C)C(=O)[C@@H]2CCN2C(=O)[C@H](C)N(C)C1=O` [Compound 1734] ([NMeL]I[NMeA][Aze][NMePhe(4-CF3)][Sar][hPhe(3-Cl-4-CF3)]P[Ac5c][NMeI][dNMeD]-Pyrrolidide; lactam N-11), the IC50 was 71 nM.

Consider `CCCC[C@@H]1NC(=O)[C@H](Cc2cc(F)cc(I)c2)NC(=O)CN(C)C(=O)[C@H](Cc2ccc(OC)cc2)N(C)C(=O)[C@@H]2CCN2C(=O)[C@H](C)N(C)C(=O)[C@H]([C@@H](C)CC)NC(=O)[C@H](CC)N(C)C(=O)C[C@@H](C(=O)N2CCCCC2)N(C)C(=O)[C@H](CC(C)C)NC(=O)C(C)(C)N(C)C1=O` [Compound 1226] ([NMeAbu]I[NMeA][Aze][NMeY](Me)[Sar][X51][Nle][NMeAib]L[NMeD]-Piperidide; lactam N-11), for which the IC50 worked out at 15 nM.

In the case of `CCCC[C@@H]1NC(=O)[C@H](Cc2cccc(I)c2F)NC(=O)CN(C)C(=O)[C@H](Cc2ccc(OC)cc2)N(C)C(=O)[C@@H]2CCN2C(=O)[C@H](C)N(C)C(=O)[C@H]([C@@H](C)CC)NC(=O)[C@H](CC)N(C)C(=O)C[C@@H](C(=O)N2CCCCC2)N(C)C(=O)[C@H](CC(C)C)NC(=O)C(C)(C)N(C)C1=O` [Compound 1249] ([NMeAbu]I[NMeA][Aze][NMeY](Me)[Sar][X41][Nle][NMeAib]L[NMeD]-Piperidide; lactam N-11), the half-maximal inhibitory concentration (IC50) was determined as 33 nM.

Consider `CC[C@H](C)[C@@H]1NC(=O)[C@H](C)N(C)C(=O)C[C@@H](C)NC(=O)[C@H](C2CCCC2)N(C)C(=O)C2(CCCC2)NC(=O)[C@@H]2CCCN2C(=O)[C@H](CCc2ccc(C(F)(F)F)c(Cl)c2)NC(=O)[C@@H](C)N(C)C(=O)[C@H](Cc2ccc(C(F)(F)F)cc2)N(C)C(=O)[C@@H]2CCN2C(=O)CN(C)C1=O` [Compound 1507] (cyclo([Ac5c][NMeGly(cPent)][d(β3hA)][NMeA]I[Sar][Aze][NMePhe(4-CF3)][dNMeA][hPhe(3-Cl-4-CF3)]P)), for which the IC50 came to 24 nM.

Consider `CC[C@H](C)[C@@H]1NC(=O)[C@H](CC(C)C)N(C)C(=O)C[C@@H](C)NC(=O)[C@H](C(C)C)N(C)C(=O)C2(CCCC2)NC(=O)[C@@H]2CCCN2C(=O)[C@H](CCc2ccc(C(F)(F)F)c(Cl)c2)NC(=O)CN(C)C(=O)[C@H](CC2CCCCC2)N(C)C(=O)CN(C)C(=O)[C@@H]2CCCN2C1=O` [Compound 185] (cyclo([Ac5c][NMeV][d(β3hA)][NMeL]IP[Sar][NMeCha][Sar][hPhe(3-Cl-4-CF3)]P)), for which the IC50 was 170 nM.

`CC[C@H](C)[C@@H]1NC(=O)[C@H](C)N(C)C(=O)C[C@@H](C(=O)N2CCCCC2)NC(=O)[C@H](CC(C)C)N(C)C(=O)[C@H](Cc2ccccc2)N(C)C(=O)[C@H](CC(C)C)NC(=O)[C@H](Cc2cccc(C#N)c2)NC(=O)CN(C)C(=O)[C@H](Cc2ccc(Cl)cc2)N(C)C(=O)CN(C)C(=O)CN(C)C1=O` [Compound 252] ([NMeA]I[Sar][Sar][NMePhe(4-Cl)][Sar][Phe(3-CN)]L[NMeF][NMeL]D-Piperidide; lactam N-11): the IC50 worked out at 55 nM.

As for `CCCCN1CC(=O)N(C)CC(=O)N(C)[C@@H](CC2CCCCC2)C(=O)N(C)CC(=O)N[C@@H](CCc2ccc(C(F)(F)F)c(Cl)c2)C(=O)N2CCC[C@H]2C(=O)NC2(CCCC2)C(=O)N(C)[C@@H](C(C)C)C(=O)N[C@H](C)CC(=O)N(C)[C@@H](CC(C)C)C(=O)N[C@@H]([C@@H](C)CC)C1=O` [Compound 123] (cyclo([Ac5c][NMeV][d(β3hA)][NMeL]I[NBuGly][Sar][NMeCha][Sar][hPhe(3-Cl-4-CF3)]P)), the IC50 came out at 170 nM.

For the compound `CC[C@H](C)[C@@H]1NC(=O)[C@H](C)N(C)C(=O)C[C@@H](C(=O)N2CCCC2)NC(=O)[C@H](C(C)C)N(C)C(=O)[C@H](Cc2ccccc2)N(C)C(=O)[C@H](Cc2ccccc2)NC(=O)[C@H](Cc2cc(F)cc(F)c2)NC(=O)CN(C)C(=O)[C@H](Cc2ccc(Cl)cc2)N(C)C(=O)CN(C)C(=O)CN(C)C1=O` [Compound 21] ([NMeA]I[Sar][Sar][NMePhe(4-Cl)][Sar][Phe(3,5-F2)]F[NMeF][NMeV]D-Pyrrolidide; lactam N-11), the IC50 was determined as 250 nM.
